According to patent publication EP4389751A1, “HETEROCYCLIC COMPOUNDS AND USES THEREOF” (Kumquat Biosciences Inc., priority 2021, dated 2024):

Experiments:
[1] = target: T1, KRAS protein (His-tagged GDP-loaded G12S 1-169) (Homo sapiens, UniProt P01116, G12S); assay: Covalent modification of KRAS protein, intact-protein LC-MS; type: binding; conditions: 24hrs at room temperature, KRAS protein ~2 µM
T1 construct: His-tagged GDP-loaded G12S 1-169
Description: Test compounds are prepared as 10 mM stock solutions in DMSO (Fisher cat#BP231-100). KRAS protein (His-tagged GDP-loaded wildtype 1-169, His-tagged GDP-loaded G12S 1-169 or His-tagged GDP-loaded G12D 1-169) is diluted to ~2 µM in appropriate buffer (e.g., a Hepes buffer at physiological conditions). For testing KRAS modification, compounds are diluted to 50X final test concentration in DMSO in 96-well storage plates. 2 µl of the diluted 50X compounds are added to appropriate wells in the PCR plate (Fisher cat#AB-0800). […] of the stock protein solution is added to each well of the 96-well PCR plate. Reactions are mixed carefully. The plate is sealed well with aluminum plate seal, and stored in drawer at room temperature for 24hrs. 5 µl of 2% formic acid (Fisher cat#A1 17-50) in MilliQ H2O is then added to each well followed by mixing with a pipette. The plate is then resealed with aluminum seal and stored until mass spectrometry analysis.
The extent of covalent modification of KRAS proteins was determined by liquid chromatography electrospray mass spectrometry analysis of the intact proteins on a Thermo Q-Exactive Plus mass spectrometer. 20 µl of sample was injected onto a bioZen 3.6 µm Intact C4 column (Phenomenex cat#00B-4767-AN) placed in a column oven set to 40°C and separated using a suitable LC gradient from -20% to ~60% solvent B. Solvent A was 0.1% formic acid and solvent B was 0.1% formic acid in acetonitrile. HESI source settings were set to 40, 5 and 1 for the sheath, auxiliary and sweep gas flow, respectively. The spray voltage was 4 kV, and the capillary temperature was 320°C. S-lens RF level was 50 and auxiliary gas heater temperature was set to 200°C. The mass spectrometry was acquired using a scan range from 650 to 1750 m/z using positive polarity at a mass resolution of 70,000, AGC target of 1e6 ions and maximum injection time of 250ms. The recorded protein mass spectrum was deconvoluted from the raw data file using Protein Deconvolution v4.0 (Thermo). The protein mass and adduct masses were exported with their peak intensities. The peak intensities for the unmodified and modified protein were used to calculate the percent covalent modification of the KRAS protein based on the following equation: %KRAS protein modification = ((KRAS-compound) / (KRAS) + (KRAS-Compound)) *100.

[2] = target: T2, K-Ras G12S (Homo sapiens, UniProt P01116, G12S); assay: HTRF assay of the K-Ras / SOS1 interaction; type: biochemical; conditions: IC50 (against K-Ras G12D) to IC50 (against K-Ras G12S)
T2 construct: made in house; host or cells: E. coli (e.g., BL21 (DE3))
Summary of the method: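 Compounds (duplicates, 10 µM to 0.01 µM) were incubated ≥~10 min with Eu-labelled GST-K-Ras G12S and XL665-labelled His-hSOS1 in HEPES pH 7.4 buffer containing NaCl, DTT, BSA and Igepal. Disruption measured as HTRF emission ratio 665/620 nm, fitted to IC50.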

[3] = test system: GP2D cells; assay: Cell proliferation assay (CellTiter-Glo), K-Ras G12D cells; type: cell-based; conditions: GP2D cells (K-Ras G12D); read-out: Inhibition of GP2D Cells (IC50)
Summary of the method: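 CellTiter-Glo luminescence, taken roughly 5 days after dosing, measured growth of G12D-mutant GP2D cells in DMEM/2 mM glutamine/10% FBS. Compound dilution series (e.g., 9 points, 3-fold) added the day after plating. Four-parameter fitting gave IC50.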

Nc1nc2c(-c3c(Cl)cc4c(N5CCCC6(CCN(C(=O)n7cncn7)C6)C5)nc(OC[C@@]56CCCN5C[C@H](F)C6)nc4c3F)ccc(F)c2s1 (stereo partly drawn) [Compound A104, (7-(7-(2-amino-7-fluorobenzo[d]thiazol-4-yl)-6-chloro-8-fluoro-2-(((2R,7aS)-2-fluorotetrahydro-1H-pyrrolizin-7a(5H)-yl)methoxy)quinazolin-4-yl)-2,7-diazaspiro[4.5]decan-2-yl)(1H-1,2,4-triazol-1-yl)methanone]
% G12S Modification at 24 hr. [1]: ++ (++ indicates between about 1%- 20% labelling) | Ratio of IC50 KRAS G12D vs. IC50 KRAS G12S [2]: A (A: indicates that the ratio of IC50 against KrasG12D vs. IC50 against KrasG12S is 1-fold or greater) | IC50 [3]: 1000 to 10000 nM

C#Cc1c(F)ccc2cccc(-c3ccc4c(N5CCN(C(=O)n6cncn6)CC(F)(F)C5)nc(OC[C@@]56CCCN5C[C@H](F)C6)nc4c3F)c12 [Compound A107, (4-(7-(8-ethynyl-7-fluoronaphthalen-1-yl)-8-fluoro-2-(((2R,7aS)-2-fluorotetrahydro-1H-pyrrolizin-7 a(5H)-yl)methoxy)quinazolin-4-yl)-6,6-difluoro-1 ,4-diazepan-1-yl)(1H-1,2,4-triazol-1-yl)methanone]
% G12S Modification at 24 hr. [1]: ++ (++ indicates between about 1%- 20% labelling) | Ratio of IC50 KRAS G12D vs. IC50 KRAS G12S [2]: A (A: indicates that the ratio of IC50 against KrasG12D vs. IC50 against KrasG12S is 1-fold or greater) | IC50 [3]: 1000 to 10000 nM

N#Cc1cnn(C(=O)N2CCN(c3nc(OC[C@@]45CCCN4C[C@H](F)C5)nc4c(F)c(-c5ccc(F)c6sc(N)nc56)c(Cl)cc34)CC(F)(F)C2)c1 [Compound A126, 1-(4-(7-(2-amino-7-fluorobenzo[d]thiazol-4-yl)-6-chloro-8-fluoro-2-(((2R,7aS)-2-fluorotetrahydro-1H-pyrrolizin-7a(5H)-yl)methoxy)quinazolin-4-yl)-6,6-difluoro-1,4-diazepane-1-carbonyl)-1Hpyrazole-4-carbonitrile]
% G12S Modification at 24 hr. [1]: +++ (+++ indicates greater than 20% labelling) | Ratio of IC50 KRAS G12D vs. IC50 KRAS G12S [2]: A (A: indicates that the ratio of IC50 against KrasG12D vs. IC50 against KrasG12S is 1-fold or greater) | IC50 [3]: 1000 to 10000 nM

Nc1nc2c(-c3c(Cl)cc4c(N5CC6CN(C(=O)n7cncn7)CC6C5)nc(OC[C@@]56CCCN5C[C@H](F)C6)nc4c3F)ccc(F)c2s1 (stereo partly drawn) [Compound A127, (5-(7-(2-amino-7-fluorobenzo[d]thiazol-4-yl)-6-chloro-8-fluoro-2-(((2R,7aS)-2-fluorotetrahydro-1H-pyrrolizin-7a(5H)-yl)methoxy)quinazolin-4-yl)hexahydropyrrolo[3,4-c]pyrrol-2(1H)-yl)(1H-1,2,4-triazol-1-yl)methanone]
% G12S Modification at 24 hr. [1]: ++ (++ indicates between about 1%- 20% labelling) | Ratio of IC50 KRAS G12D vs. IC50 KRAS G12S [2]: A (A: indicates that the ratio of IC50 against KrasG12D vs. IC50 against KrasG12S is 1-fold or greater) | IC50 [3]: 1000 to 10000 nM

N#Cc1c(N)sc2c(F)ccc(-c3c(Cl)cc4c(N5CCOC6(CN(C(=O)n7cncn7)C6)C5)nc(OC[C@@]56CCCN5C[C@H](F)C6)nc4c3F)c12 [Compound A132, 4-(4-(2-(1H-1,2,4-triazole-1-carbonyl)-5-oxa-2,8-diazaspiro[3.5]nonan-8-yl)-6-chloro-8-fluoro-2-(((2R,7aS)-2-fluorotetrahydro-1H-pyrrolizin-7a(5H)-yl)methoxy)quinazolin-7-yl)-2-amino-7-fluorobenzo[b]thiophene-3-carbonitrile]
% G12S Modification at 24 hr. [1]: +++ (+++ indicates greater than 20% labelling) | Ratio of IC50 KRAS G12D vs. IC50 KRAS G12S [2]: A (A: indicates that the ratio of IC50 against KrasG12D vs. IC50 against KrasG12S is 1-fold or greater) | IC50 [3]: 1000 to 10000 nM

N#Cc1c(N)sc2c(F)ccc(-c3c(Cl)cc4c(N5CC6(CN(C(=O)n7cncn7)CCO6)C5)nc(OC[C@@]56CCCN5C[C@H](F)C6)nc4c3F)c12 [Compound A140, 4-(4-(8-(1H-1,2,4-triazole-1-carbonyl)-5-oxa-2,8-diazaspiro[3.5]nonan-2-yl)-6-chloro-8-fluoro-2-(((2R,7aS)-2-fluorotetrahydro-1H-pyrrolizin-7a(5H)-yl)methoxy)quinazolin-7-yl)-2-amino-7-fluorobenzo[b]thiophene-3-carbonitrile]
% G12S Modification at 24 hr. [1]: +++ (+++ indicates greater than 20% labelling) | Ratio of IC50 KRAS G12D vs. IC50 KRAS G12S [2]: A (A: indicates that the ratio of IC50 against KrasG12D vs. IC50 against KrasG12S is 1-fold or greater) | IC50 [3]: 1000 to 10000 nM

N#CC[C@H]1CN(c2nc(OC[C@@]34CCCN3C[C@H](F)C4)nc3c(F)c(-c4ccc(F)c5sc(N)nc45)c(Cl)cc23)CCN1C(=O)n1cncn1 [Compound A145, 2-((2S)-4-(7-(2-amino-7-fluorobenzo[d]thiazol-4-yl)-6-chloro-8-fluoro-2-(((2R,7aS)-2-fluorotetrahydro-1H-pyrrolizin-7a(5H)-yl)methoxy)quinazolin-4-yl)-1-(1H-1,2,4-triazole-1-carbonyl)piperazin-2-yl)acetonitrile]
% G12S Modification at 24 hr. [1]: +++ (+++ indicates greater than 20% labelling) | Ratio of IC50 KRAS G12D vs. IC50 KRAS G12S [2]: A (A: indicates that the ratio of IC50 against KrasG12D vs. IC50 against KrasG12S is 1-fold or greater) | IC50 [3]: 1000 to 10000 nM

Nc1nc2c(-c3c(Cl)cc4c(N5CCCCC6(CN(C(=O)n7cncn7)C6)C5)nc(OC[C@@]56CCCN5C[C@H](F)C6)nc4c3F)ccc(F)c2s1 [Compound A265, (6-(7-(2-amino-7-fluorobenzo[d]thiazol-4-yl)-6-chloro-8-fluoro-2-(((2R,7aS)-2-fluorotetrahydro-1H-pyrrolizin-7a(5H)-yl)methoxy)quinazolm-4-yl)-2,6-diazaspiro[3.6]decan-2-yl)(1H-1,2,4-triazol-1-yl)methanone]
% G12S Modification at 24 hr. [1]: +++ (+++ indicates greater than 20% labelling) | IC50 [3]: ≤ 1000 nM

N#Cc1nccn1C(=O)N1CCN(c2nc(OC[C@@]34CCCN3C[C@H](F)C4)nc3c(F)c(-c4ccc(F)c5sc(N)nc45)c(Cl)cc23)CC1 [Compound A272, 1-(4-(7-(2-amino-7-fluorobenzo[d]thiazol-4-yl)-6-chloro-8-fluoro-2-(((2R,7aS)-2-fluorotetrahydro-1H-pyrrolizin-7a(5H)-yl)methoxy)quinazolin-4-yl)piperazine-1-carbonyl)-1H-imidazole-2-carbonitrile]
% G12S Modification at 24 hr. [1]: +++ (+++ indicates greater than 20% labelling) | IC50 [3]: 1000 to 10000 nM

N#Cc1cccn1C(=O)N1CCN(c2nc(OC[C@@]34CCCN3C[C@H](F)C4)nc3c(F)c(-c4ccc(F)c5sc(N)nc45)c(Cl)cc23)CC1 [Compound A287, 1-(4-(7-(2-amino-7-fluorobenzo[d]thiazol-4-yl)-6-chloro-8-fluoro-2-(((2R,7aS)-2-fluorotetrahydro-1H-pyrrolizin-7a(5H)-yl)methoxy)quinazolin-4-yl)piperazine-1-carbonyl)-1H-pyrrole-2-carbonitrile]
% G12S Modification at 24 hr. [1]: ++ (++ indicates between about 1%- 20% labelling) | IC50 [3]: 1000 to 10000 nM
